Data taken from the OligoGym collection.
Oligonucleotides are given in HELM: sugar(base)linkage, 5' to 3'; d 2'-deoxyribose, r ribose, m 2'-O-methylribose, p phosphate. ss, as = sense and antisense strand

target: CDC34; assay: reporter assay of Huesken 2005; settings: siRNA
Further: test concentration or dose not given here.

Substance	normalised inhibition (eCFP-eYFP dual reporter)
RNA1{r(C)p.r(G)p.r(C)p.r(G)p.r(U)p.r(G)p.r(A)p.r(C)p.r(A)p.r(C)p.r(U)p.r(G)p.r(G)p.r(U)p.r(G)p.r(G)p.r(A)p.r(C)p.r(G)p.d(T)p.d(T)}|RNA2{r(C)p.r(G)p.r(U)p.r(C)p.r(C)p.r(A)p.r(C)p.r(C)p.r(A)p.r(G)p.r(U)p.r(G)p.r(U)p.r(C)p.r(A)p.r(C)p.r(G)p.r(C)p.r(G)p.d(G)p.d(A)}$$$RNA1{StrandType:ss}|RNA2{StrandType:as}$	67.3%
RNA1{r(C)p.r(G)p.r(U)p.r(C)p.r(A)p.r(G)p.r(G)p.r(A)p.r(C)p.r(C)p.r(A)p.r(U)p.r(U)p.r(C)p.r(U)p.r(C)p.r(C)p.r(U)p.r(G)p.d(T)p.d(T)}|RNA2{r(C)p.r(A)p.r(G)p.r(G)p.r(A)p.r(G)p.r(A)p.r(A)p.r(U)p.r(G)p.r(G)p.r(U)p.r(C)p.r(C)p.r(U)p.r(G)p.r(A)p.r(C)p.r(G)p.d(T)p.d(T)}$$$RNA1{StrandType:ss}|RNA2{StrandType:as}$	72.1%
RNA1{r(C)p.r(G)p.r(U)p.r(G)p.r(G)p.r(A)p.r(C)p.r(G)p.r(C)p.r(C)p.r(U)p.r(C)p.r(C)p.r(G)p.r(U)p.r(G)p.r(A)p.r(U)p.r(G)p.d(T)p.d(T)}|RNA2{r(C)p.r(A)p.r(U)p.r(C)p.r(A)p.r(C)p.r(G)p.r(G)p.r(A)p.r(G)p.r(G)p.r(C)p.r(G)p.r(U)p.r(C)p.r(C)p.r(A)p.r(C)p.r(G)p.d(T)p.d(T)}$$$RNA1{StrandType:ss}|RNA2{StrandType:as}$	79.4%
RNA1{r(C)p.r(U)p.r(A)p.r(C)p.r(G)p.r(A)p.r(C)p.r(G)p.r(A)p.r(C)p.r(U)p.r(A)p.r(C)p.r(U)p.r(A)p.r(C)p.r(G)p.r(G)p.r(G)p.d(T)p.d(T)}|RNA2{r(C)p.r(C)p.r(C)p.r(G)p.r(U)p.r(A)p.r(G)p.r(U)p.r(A)p.r(G)p.r(U)p.r(C)p.r(G)p.r(U)p.r(C)p.r(G)p.r(U)p.r(A)p.r(G)p.d(A)p.d(A)}$$$RNA1{StrandType:ss}|RNA2{StrandType:as}$	69%
RNA1{r(C)p.r(U)p.r(A)p.r(C)p.r(G)p.r(A)p.r(G)p.r(G)p.r(G)p.r(C)p.r(G)p.r(G)p.r(C)p.r(U)p.r(A)p.r(C)p.r(U)p.r(U)p.r(C)p.d(T)p.d(T)}|RNA2{r(G)p.r(A)p.r(A)p.r(G)p.r(U)p.r(A)p.r(G)p.r(C)p.r(C)p.r(G)p.r(C)p.r(C)p.r(C)p.r(U)p.r(C)p.r(G)p.r(U)p.r(A)p.r(G)p.d(T)p.d(A)}$$$RNA1{StrandType:ss}|RNA2{StrandType:as}$	59.8%
RNA1{r(C)p.r(U)p.r(C)p.r(A)p.r(G)p.r(A)p.r(C)p.r(C)p.r(U)p.r(C)p.r(U)p.r(U)p.r(C)p.r(U)p.r(A)p.r(C)p.r(G)p.r(A)p.r(C)p.d(T)p.d(T)}|RNA2{r(G)p.r(U)p.r(C)p.r(G)p.r(U)p.r(A)p.r(G)p.r(A)p.r(A)p.r(G)p.r(A)p.r(G)p.r(G)p.r(U)p.r(C)p.r(U)p.r(G)p.r(A)p.r(G)p.d(C)p.d(C)}$$$RNA1{StrandType:ss}|RNA2{StrandType:as}$	37.2%
RNA1{r(C)p.r(U)p.r(C)p.r(C)p.r(U)p.r(G)p.r(A)p.r(G)p.r(U)p.r(G)p.r(U)p.r(G)p.r(A)p.r(U)p.r(C)p.r(U)p.r(C)p.r(C)p.r(C)p.d(T)p.d(T)}|RNA2{r(G)p.r(G)p.r(G)p.r(A)p.r(G)p.r(A)p.r(U)p.r(C)p.r(A)p.r(C)p.r(A)p.r(C)p.r(U)p.r(C)p.r(A)p.r(G)p.r(G)p.r(A)p.r(G)p.d(A)p.d(A)}$$$RNA1{StrandType:ss}|RNA2{StrandType:as}$	42.3%
RNA1{r(C)p.r(U)p.r(G)p.r(A)p.r(G)p.r(U)p.r(G)p.r(U)p.r(G)p.r(A)p.r(U)p.r(C)p.r(U)p.r(C)p.r(C)p.r(C)p.r(U)p.r(C)p.r(C)p.d(T)p.d(T)}|RNA2{r(G)p.r(G)p.r(A)p.r(G)p.r(G)p.r(G)p.r(A)p.r(G)p.r(A)p.r(U)p.r(C)p.r(A)p.r(C)p.r(A)p.r(C)p.r(U)p.r(C)p.r(A)p.r(G)p.d(G)p.d(A)}$$$RNA1{StrandType:ss}|RNA2{StrandType:as}$	23.2%
